Read-outs that look alike come from different tables or passages of the source. Numbered stars: 1 amine (or outer) side, 2 acyl side, 3 side chain; on linkers, the order of the positions; unused ones are H or OH. Square brackets hold non-standard residues; d marks the D form. Side chains are listed from the residue outwards. Peptide text beside a SMILES is read from it. * marks the point of attachment. C20 diacid = O=C(O)CCCCCCCCCCCCCCCCCCC(=O)*; γGlu = O=C(O)[C@H](CCC(=O)[*:2])N[*:1]; AEEA = NCCOCCOCC(=O)O; Aib = CC(C)(N)C(=O)O
Key:
[1] = Turbidity of crude library peptides (absorbance at 600 nm); type: physicochemical; settings: Physical stability of peptides
Summary of the method: (§1)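 Values reflect mean ThT emission (ex 450, em 480 nm) over 72 h at 40° C, read every 10 min after 5 min shaking at 700 rpm, plus a single initial absorbance at 600 nm for turbidity. Peptides were at 267 μM, pH 4.0 acetate or pH 7.0 phosphate (50 mM), with 4 μM ThT.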

[2] = Fibril formation of crude library peptides (Thioflavin T); type: physicochemical; design: key: average ThT fluorescence emission at 480 nm (ex 450 nm), raw units; settings: Physical stability of peptides
Summary of the method: as §1

GLP1R = GLP1R (Homo sapiens, UniProt P43220); assay: hGLP1R potency, cAMP accumulation in CHO-K1 cells stably overexpressing hGLP1R; type: cell-based; design: host or cells: CHO-K1; settings: for EC50: cAMP accumulation, CHO-K1 cells overexpressing hGLP1R; for SCTR EC50/GLP1R EC50 ratio: selectivity for hGLP1R over hSCTR, cAMP accumulation in CHO-K1 cells
Chain of GLP1R (P43220 24-463): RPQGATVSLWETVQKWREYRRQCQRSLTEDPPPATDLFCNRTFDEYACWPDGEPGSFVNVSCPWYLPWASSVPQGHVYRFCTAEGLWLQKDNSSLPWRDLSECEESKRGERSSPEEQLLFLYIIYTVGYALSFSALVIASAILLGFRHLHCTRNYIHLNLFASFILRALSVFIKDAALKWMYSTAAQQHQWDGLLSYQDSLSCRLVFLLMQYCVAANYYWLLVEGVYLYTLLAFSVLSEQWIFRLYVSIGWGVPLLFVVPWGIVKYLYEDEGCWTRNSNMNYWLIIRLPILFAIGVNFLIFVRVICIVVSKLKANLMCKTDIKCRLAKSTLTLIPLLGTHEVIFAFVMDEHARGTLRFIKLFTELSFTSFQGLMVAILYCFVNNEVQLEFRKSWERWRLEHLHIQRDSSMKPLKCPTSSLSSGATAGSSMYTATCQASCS
Summary of the method: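 Potency reflects cAMP accumulation measured by time-resolved fluorescence energy transfer after a 30 min room-temperature stimulation in IBMX-containing (0.5 mM) DPBS with casein. Purified peptides were tested in duplicate over eleven threefold dilutions, and EC50 was obtained from sigmoid concentration-response fitting.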

SCTR = SCTR (Homo sapiens, UniProt P47872); assay: hSCTR potency, cAMP accumulation in CHO-K1 cells stably overexpressing hSCTR; type: cell-based; design: alternatively Euroscreen ES-712-AF; FAST-0161L; host or cells: CHO-K1; settings: cAMP accumulation, CHO-K1 cells overexpressing hSCTR
Chain of SCTR (P47872 23-440): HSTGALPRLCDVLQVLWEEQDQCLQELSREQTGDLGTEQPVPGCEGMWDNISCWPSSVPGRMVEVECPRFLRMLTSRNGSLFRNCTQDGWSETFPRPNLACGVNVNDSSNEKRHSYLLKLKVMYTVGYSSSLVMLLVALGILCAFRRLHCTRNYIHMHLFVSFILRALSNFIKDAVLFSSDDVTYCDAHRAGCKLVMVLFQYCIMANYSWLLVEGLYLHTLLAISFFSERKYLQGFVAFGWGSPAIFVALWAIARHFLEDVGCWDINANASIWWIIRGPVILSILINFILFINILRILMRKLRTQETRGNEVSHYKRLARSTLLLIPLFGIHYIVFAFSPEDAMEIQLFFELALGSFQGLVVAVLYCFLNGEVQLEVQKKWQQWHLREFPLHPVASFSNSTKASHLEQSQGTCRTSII
Summary of the method: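 Potency reflects cAMP accumulation after 30 min agonist exposure at room temperature in hSCTR-expressing CHO-K1 cells, with 0.5 mM IBMX present to block phosphodiesterase. EC50 was derived by nonlinear regression.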

[3] = read-out: hGLP1R pEC50 (converted)
[4] = read-out: hSCTR pEC50 (converted)

Compound | Turbidity (pH 7) [1] | Fibril formation [2] | EC50 (GLP1R; [3]) [nM] | SCTR EC50/GLP1R EC50 ratio (GLP1R) | EC50 (SCTR; [4]) [nM] | Selectivity (GLP1R; SCTR EC50/GLP1R EC50 ratio) | EC50 (GLP1R; read-out: pEC50 hGLPR1 (converted)) [nM] | EC50 (SCTR; read-out: pEC50 hSCTR (converted)) [nM]
CC(C)C[C@H](NC(=O)[C@H](Cc1ccccc1)NC(=O)[C@H](CCCNC(=N)N)NC(=O)[C@H](CCC(N)=O)NC(=O)[C@H](CC(C)C)NC(=O)C(C)(C)NC(=O)[C@H](C)NC(=O)[C@H](CCC(=O)O)NC(=O)[C@H](CCC(=O)O)NC(=O)[C@H](CCCCNC(=O)COCCOCCNC(=O)COCCOCCNC(=O)CC[C@H](NC(=O)CCCCCCCCCCCCCCCCCCC(=O)O)C(=O)O)NC(=O)[C@H](CC(C)C)NC(=O)[C@H](Cc1ccccc1)NC(=O)[C@H](CO)NC(=O)[C@@H](NC(=O)[C@H](CC(=O)O)NC(=O)[C@H](CO)NC(=O)[C@@H](NC(=O)[C@H](Cc1ccccc1)NC(=O)[C@@H](NC(=O)CNC(=O)[C@H](CCC(=O)O)NC(=O)C(C)(C)NC(=O)[C@@H](N)Cc1c[nH]cn1)[C@@H](C)O)[C@@H](C)O)C(C)C)C(=O)N[C@@H](CCC(=O)O)C(=O)N[C@@H](Cc1c[nH]cn1)C(=O)N[C@@H](CC(C)C)C(=O)N[C@H](C(N)=O)C(C)C [compound 173] (H-H[Aib]EGTFTSDVSFLK([AEEA-AEEA-γGlu-C20 diacid])EEA[Aib]LQRFLEHLV-NH2) | 0.08 | 2836 | 0.0126 | 13696 | 158 |  |  | 
CC[C@H](C)[C@H](NC(=O)[C@H](Cc1ccccc1)NC(=O)[C@H](CCCNC(=N)N)NC(=O)[C@H](CCC(N)=O)NC(=O)[C@H](CC(C)C)NC(=O)[C@H](C)NC(=O)[C@H](C)NC(=O)CNC(=O)[C@H](CCC(=O)O)NC(=O)[C@H](CC(C)C)NC(=O)[C@H](CC(C)C)NC(=O)[C@H](Cc1ccccc1)NC(=O)[C@H](CO)NC(=O)[C@@H](NC(=O)[C@H](CC(=O)O)NC(=O)[C@H](CO)NC(=O)[C@@H](NC(=O)[C@H](Cc1ccccc1)NC(=O)[C@@H](NC(=O)CNC(=O)[C@H](CCC(=O)O)NC(=O)C(C)(C)NC(=O)[C@@H](N)Cc1c[nH]cn1)[C@@H](C)O)[C@@H](C)O)[C@@H](C)CC)C(=O)N[C@@H](CCC(N)=O)C(=O)N[C@@H](Cc1c[nH]c2ccccc12)C(=O)N[C@@H](CC(C)C)C(=O)N[C@H](C(N)=O)C(C)C [compound 117] (H-H[Aib]EGTFTSDISFLLEGAALQRFIQWLV-NH2) | 0.50 | 238242 | 0.01 | 19436 | 200 |  |  | 
CC(C)C[C@H](NC(=O)[C@H](Cc1ccccc1)NC(=O)[C@H](CCCNC(=N)N)NC(=O)[C@H](CCC(N)=O)NC(=O)[C@H](C)NC(=O)[C@H](C)NC(=O)[C@H](C)NC(=O)[C@H](Cc1ccccc1)NC(=O)[C@H](CCC(=O)O)NC(=O)[C@H](CCCCNC(=O)COCCOCCNC(=O)COCCOCCNC(=O)CC[C@H](NC(=O)CCCCCCCCCCCCCCCCCCC(=O)O)C(=O)O)NC(=O)[C@H](CC(C)C)NC(=O)[C@H](Cc1ccccc1)NC(=O)[C@H](CO)NC(=O)[C@@H](NC(=O)[C@H](CC(=O)O)NC(=O)[C@H](CO)NC(=O)[C@@H](NC(=O)[C@H](Cc1ccccc1)NC(=O)[C@@H](NC(=O)CNC(=O)[C@H](CCC(=O)O)NC(=O)C(C)(C)NC(=O)[C@@H](N)Cc1c[nH]cn1)[C@@H](C)O)[C@@H](C)O)C(C)C)C(=O)N[C@@H](CCC(=O)O)C(=O)N[C@@H](Cc1c[nH]cn1)C(=O)N[C@@H](CC(C)C)C(=O)N[C@H](C(N)=O)C(C)C [compound 84] (H-H[Aib]EGTFTSDVSFLK([AEEA-AEEA-γGlu-C20 diacid])EFAAAQRFLEHLV-NH2) | 0.08 | 47022 | 0.0794 | 51215 | 3980 |  |  | 
CC[C@H](C)[C@H](NC(=O)[C@H](Cc1ccccc1)NC(=O)[C@H](CCCNC(=N)N)NC(=O)[C@H](CCC(N)=O)NC(=O)[C@H](CC(C)C)NC(=O)[C@H](C)NC(=O)[C@H](C)NC(=O)CNC(=O)[C@H](CCC(=O)O)NC(=O)[C@H](CC(C)C)NC(=O)[C@H](CC(C)C)NC(=O)C(C)(C)NC(=O)[C@H](CO)NC(=O)C(C)(C)NC(=O)[C@H](CC(=O)O)NC(=O)[C@H](CO)NC(=O)[C@@H](NC(=O)[C@H](Cc1ccccc1)NC(=O)[C@@H](NC(=O)CNC(=O)[C@H](CCC(=O)O)NC(=O)C(C)(C)NC(=O)[C@@H](N)Cc1c[nH]cn1)[C@@H](C)O)[C@@H](C)O)C(=O)N[C@@H](CCC(N)=O)C(=O)N[C@@H](Cc1c[nH]c2ccccc12)C(=O)N[C@@H](CC(C)C)C(=O)N[C@H](C(N)=O)C(C)C [compound 107] (H-H[Aib]EGTFTSD[Aib]S[Aib]LLEGAALQRFIQWLV-NH2) | 0.15 | 3284 | 0.158 | 6863 | 1000 |  |  | 
CC(C)C[C@H](NC(=O)[C@H](Cc1ccccc1)NC(=O)[C@H](CCCNC(=N)N)NC(=O)[C@H](CCC(N)=O)NC(=O)[C@H](C)NC(=O)[C@H](C)NC(=O)[C@H](C)NC(=O)[C@H](CCC(=O)O)NC(=O)[C@H](CCC(=O)O)NC(=O)[C@H](CCCCNC(=O)COCCOCCNC(=O)COCCOCCNC(=O)CC[C@H](NC(=O)CCCCCCCCCCCCCCCCCCC(=O)O)C(=O)O)NC(=O)[C@H](CC(C)C)NC(=O)[C@H](CCC(=O)O)NC(=O)[C@H](CO)NC(=O)[C@@H](NC(=O)[C@H](CC(=O)O)NC(=O)[C@H](CO)NC(=O)[C@@H](NC(=O)[C@H](Cc1ccccc1)NC(=O)[C@@H](NC(=O)CNC(=O)[C@H](CCC(=O)O)NC(=O)C(C)(C)NC(=O)[C@@H](N)Cc1c[nH]cn1)[C@@H](C)O)[C@@H](C)O)C(C)C)C(=O)N[C@@H](CCC(=O)O)C(=O)N[C@@H](Cc1c[nH]cn1)C(=O)N[C@@H](CC(C)C)C(=O)N[C@H](C(N)=O)C(C)C [compound 98] (H-H[Aib]EGTFTSDVSELK([AEEA-AEEA-γGlu-C20 diacid])EEAAAQRFLEHLV-NH2) | 0.09 | 10655 | 0.0251 | 48854 | 1260 |  |  | 
CC(C)C[C@H](NC(=O)[C@H](CCC(=O)O)NC(=O)[C@H](CCCCNC(=O)COCCOCCNC(=O)COCCOCCNC(=O)CC[C@H](NC(=O)CCCCCCCCCCCCCCCCCCC(=O)O)C(=O)O)NC(=O)[C@H](CC(C)C)NC(=O)[C@H](CCCNC(=N)N)NC(=O)[C@H](CO)NC(=O)[C@@H](NC(=O)[C@H](CC(=O)O)NC(=O)[C@H](CO)NC(=O)[C@@H](NC(=O)[C@H](Cc1ccccc1)NC(=O)[C@@H](NC(=O)CNC(=O)[C@H](CCC(=O)O)NC(=O)C(C)(C)NC(=O)[C@@H](N)Cc1c[nH]cn1)[C@@H](C)O)[C@@H](C)O)C(C)C)C(=O)N[C@@H](C)C(=O)N[C@@H](C)C(=O)N[C@@H](CO)C(=O)N[C@@H](CCC(N)=O)C(=O)N[C@@H](CCCNC(=N)N)C(=O)N[C@@H](Cc1ccccc1)C(=O)N[C@@H](CC(C)C)C(=O)N[C@@H](CCC(=O)O)C(=O)N[C@@H](Cc1c[nH]cn1)C(=O)N[C@@H](CC(C)C)C(=O)N[C@H](C(N)=O)C(C)C [compound 19] (H-H[Aib]EGTFTSDVSRLK([AEEA-AEEA-γGlu-C20 diacid])ELAASQRFLEHLV-NH2) | 0.10 | 170210 |  |  |  | 7342 | 0.0794 | 631
CC(C)C[C@H](NC(=O)[C@H](Cc1ccccc1)NC(=O)[C@H](CCCNC(=N)N)NC(=O)[C@H](CCC(N)=O)NC(=O)[C@@H](NC(=O)C(C)(C)NC(=O)[C@H](C)NC(=O)[C@H](CCC(=O)O)NC(=O)[C@H](CCC(=O)O)NC(=O)[C@H](CCCCNC(=O)COCCOCCNC(=O)COCCOCCNC(=O)CC[C@H](NC(=O)CCCCCCCCCCCCCCCCCCC(=O)O)C(=O)O)NC(=O)[C@H](CC(C)C)NC(=O)[C@H](Cc1ccc(O)cc1)NC(=O)[C@H](CO)NC(=O)[C@@H](NC(=O)[C@H](CC(=O)O)NC(=O)[C@H](CO)NC(=O)[C@@H](NC(=O)[C@H](Cc1ccccc1)NC(=O)[C@@H](NC(=O)CNC(=O)[C@H](CCC(=O)O)NC(=O)C(C)(C)NC(=O)[C@@H](N)Cc1c[nH]cn1)[C@@H](C)O)[C@@H](C)O)C(C)C)[C@@H](C)O)C(=O)N[C@@H](CCC(=O)O)C(=O)N[C@@H](Cc1c[nH]cn1)C(=O)N[C@@H](CC(C)C)C(=O)N[C@H](C(N)=O)C(C)C [compound 162] (H-H[Aib]EGTFTSDVSYLK([AEEA-AEEA-γGlu-C20 diacid])EEA[Aib]TQRFLEHLV-NH2) | 0.08 | 4281 |  | 178176 | 126 |  |  | 

From patent publication US20260201008A1, “SECRETIN-DERIVED GLP1R SELECTIVE AGONISTS” (GUBRA A/S, priority 2023, published 2026)
